One compound from article PMC8804135 (Neurotherapeutics, 2021) can be followed below.

Numbered stars: 1 amine (or outer) side, 2 acyl side, 3 side chain; on linkers, the order of the positions; unused ones are H or OH. Bridge positions count the residues as written; N and C are the ends. Square brackets hold non-standard residues; d marks the D form. Peptide text beside a SMILES is read from it. dAbu(3S-yl) = C[C@@H]([C@@H](N[*:1])C(=O)[*:2])[*:3]; pGlu = O=C1CC[C@@H](C(=O)O)N1

For data set [1] the following is noted: mouse, in vivo, 1 mg/kg. On the procedure:
Pharmacokinetics studies were performed at Pharmidex UK. The animal experimental protocols were approved by the UK Government Home Office and carried out in accordance with the guidelines of the Animals (Scientific Procedures) Act (1986). Ethical approval was subject to UK Home Office license number P651A96A4.
One mg HPLC-purified and HPLC-quantified M89b was dissolved in 1 ml Milli-Q followed by thorough vortexing and warming the solution for 10 min to 60 °C. From this solution, a dilution in 0.1% 2-hydroxypropyl-β-cyclodextrin was made. Male CD1 mice (weighing 26.5 to 32.9 g, n = 3 per time point) were used for the pharmacokinetic studies. Mice were given 1 mg/kg M89b either subcutaneously (s.c.) or intravenously (i.v.). Samples were collected after 2, 5, 10, 15, 30, 60, 120, and 240 min. Post-dosing, the 4 h mice were individually housed in metabolic cages for cold collection of urine in pre-weighed tubes which were re-weighed prior to storage. At each scheduled sampling time point, terminal blood was collected from each animal by cardiac puncture in heparin-containing tubes (20 IU heparin/mL of blood) kept on wet ice. The blood was centrifuged (5 min at 21, 100 g at 4 °C), and the resulting plasma was transferred to the corresponding labeled polypropylene tubes prior to storage. […]

Data set [2] is described as follows: Hydrophobicity and solubility of the peptide for intranasal formulation. Type of data set: physicochemical. The following applies: in 10% (2-hydroxypropyl)-ß-cyclodextrin (HBC). How it is done: (§1) For intranasal delivery, 1 mg of M89b was first dissolved in 566 µl 2,2,2-trifluorethanol, 566 µl 10% (2-hydroxypropyl)-ß-cyclodextrin (HBC), and 1 µl acetic acid and incubated at 60 °C for 20 min. Another 566 µl of 10% HBC were added. The peptide was then dried in a speed-vac, and the dried pellet was dissolved in 1132 µl water by vortexing and incubation at 60 °C. M871 and GALP were purchased from GL Biochem. M871 was dissolved in saline containing 10% HBC. GALP was dissolved in saline containing 5% α-cyclodextrin.

Data set [3] in a line: In vitro stability in brain plasma. Type of data set: in vitro ADME, rat. As to conditions: Sprague-Dawley, rat, other tissue homogenate, pH 7.4. How it is done:
The method to study the stability of peptides in brain plasma is described in the Supplementary material. […]
receptor-2-selective agonist reduces acute food intake
Anneke Kuipers1, Márta Balasko2, Erika Pétervári2, Andreas Koller3,4, Susanne M.
Brunner3,4, Gert N. Moll1,5, Barbara Kofler 3*
In vitro stability in brain plasma
Sprague dawley rat brain lyophilized powder was purchased from MyBioSource (San Diego, USA). One gram brain powder was reconstituted in 10 ml PBS, 0.5 ml 2 M Tris (pH=8), 100 µl Triton X -100 and 10 mg SDS. The solution was centrifuged and the supernatant was collected, aliquoted and stored at -20 °C until usage. To assess the stability, 10 µM GAL-(1-15) and 10 µM M89b were incubated in 1% brain plasma buffered with 200 mM phosphate buffer (pH 7.4) at 37°C for up to 6 hours. At various time points […]
20 µl 100% ACN. Samples were centrifuged and kept on ice. Full-length peptides were quantified by using a C12 column (C12 RP 250 x 4.60 mm column, Phenomenex) on a JASCO HPLC system and applying a gradient of 20 -90% ACN in 0.1% TFA for 30 minutes.
Peptides were detected at 280 nm. A280 areas in chromatograms of the corresponding GAL-(1-15) and M89b full-length peptide peaks were used to determine the amount of peptide left after incubation with cerebrospinal fluid at the different time points. Peptide peaks were determined using JASCO-Borwin Chromatography software (v1.50).

Data set [4] deals with non-fasted male Wistar rats. In words: Food intake and body weight after intranasal application of peptides. Format: in vivo, rat. How it is done:
as §1
In vivo experiments involving intranasal treatment of rats and measurement of feeding behavior were performed at the Institute for Translational Medicine, University of Pécs, Pécs, Hungary. Experiments were approved by the National Ethical Council for Animal Research (permit number, BA 02/2000–11/2018). They were also in accord with the directives of the European Communities Council on the protection of animals used for scientific purposes (86/609/EEC, Directive 2010/63/EU of the European Parliament and of the Council).
Spontaneous food intake was measured in non-fasted male Wistar rats (3 months old) for 24 h following intranasal application of peptide solutions by an automated FeedScale System (Columbus, OH). Each group of animals (6–9 rats/group) was habituated to the individual chambers of the FeedScale System until daily food intake and changes in the body weight of the animals had normalized. This habituation, which lasted for a minimum of 2 weeks, allowed adaptation to the environment, to the powdered chow and to the feeder. This powdered form of chow prevented food hoarding. A special digital scale under the cages provided precise automated measurement and continuous recording of the amount of consumed food. During the measurement of the cumulative 24 h food intake, data were collected every 30 min.
Intranasal applications were performed at 06:00 PM at the onset of the active nighttime period of rats. First, the body weight of animals was recorded, and then they were intraperitoneally anesthetized with ketamine (52 mg/kg) and xylazine (9 mg/kg). For the intranasal application of peptides, rats were placed on their backs, and 25–30 µl of peptide solution was injected gently per nostril (total volume of 50–60 μl per rat depending on the administered peptides) using a 10-μl pipette. The following solutions were applied: M89b (25 nmol in 60 µl saline containing 10% HBC); GALP (17.5 nmol in 50 µl saline containing 5% α-cyclodextrin); M871 (219 nmol in 60 µl 10% HBC); and M89b + M871 (25 nmol M89b + 219 nmol M871 in 60 µl 10% HBC). […] At 24 h post-treatment, the body weight of the animals was measured.
Statistical analysis was performed with SPSS 11.0. […] Body weight data were analyzed by applying a one-way ANOVA with Tukey’s post hoc test. […]

By fraction remaining is commonly meant the share of the starting amount still present when the sample was taken. Read a low fraction remaining as a greater loss. `CC(C)C[C@H](NC(=O)[C@H](CC(C)C)NC(=O)[C@H](Cc1ccc(O)cc1)NC(=O)CNC(=O)[C@H](C)NC(=O)[C@H](C)NC(=O)[C@H](CC(N)=O)NC(=O)[C@H](CC(C)C)NC(=O)[C@H](CC(N)=O)NC(=O)[C@H](Cc1c[nH]c2ccccc12)NC(=O)[C@@H]1CCC(=O)N1)C(=O)N[C@@H](C)C(=O)N[C@H]1C(=O)N[C@@H](Cc2c[nH]cn2)C(=O)N[C@@H](C)C(=O)N[C@H](C(=O)NCC(=O)O)CS[C@H]1C` [Variant M89b, G1pE-T3N-S6A-G12A-methyllanthionine[13–16]-galanin-(1–17)] ([pGlu]WNLNAAGYLLA[dAbu(3S-yl)]HACG-OH; thioether 13-16; C-terminus assumed): the “Detection in urine samples” value in data set [1] is listed as “not detected”. Further, the “Detection in brain tissue” value in data set [1] (sc) is “not detected”. In addition, in data set [2], the Solubility result is on record as “improved solubility”. In data set [3], the fraction remaining at 6 h, 10 µM is about 85%. The “Loss of initial body weight at 24 h post-treatment” value in data set [4] (intranasal 25 nmol in 10% HBC, p = 0.009 vs. vehicle) amounted to 2.6%. In addition, the “Reduction of 24 h food intake compared to vehicle” value in data set [4] (intranasal 25 nmol in 60 µl saline with 10% HBC, p = 0.006 vs vehicle) came out at 23%.
